Laboratory results: patent publication US10160771B2, “Hepatitis C virus inhibitors and uses thereof in preparation of drugs” (priority 2014, dated 2018)

What was measured:
[1] = Cell Titer-fluor cell activity assay in HCV-1b replicon cells (CC50); format: cell-based
Method in brief: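 Con1 genotype 1b replicon cells (E1202G, T1280I, K1846T adaptive mutations), 8000 cells/well, exposed to 6-point 5-fold dilutions from 100, 10 or 1 nM top concentration in 0.5% DMSO, duplicate wells, 3 days at 37 °C. Viability read by Cell Titer-fluor (Ex 405/Em 515 nm) after 30 min; CC50 from nonlinear fit of inhibition %.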

[2] = test system: HCV genotype 1a (HCV-1a) replicon cells; assay: HCV genotype 1a replicon luciferase assay (EC50); format: cell-based, hepatitis C virus genotype 1a (H77 clone); conditions: Hepatitis C virus, 72 h, 3 days, luciferase (Bright-Glo)
Method in brief: (§1)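 Stable subgenomic replicon cells (1a: H77 with K1691R, K2040R, S2204I; 1b: Con1 with E1202G, T1280I, K1846T) carrying luciferase and neo were seeded at 8000 cells/well onto compounds (5-fold, 6-point, top 100, 10 or 1 nM; 0.5% DMSO) for 3 days at 37 °C. Bright-Glo luminescence gave EC50 by nonlinear fit.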

[3] = test system: HCV genotype 1b (HCV-1b) replicon cells; assay: HCV genotype 1b replicon luciferase assay (EC50); format: cell-based, hepatitis C virus genotype 1b (Con1 clone); conditions: Hepatitis C virus, 72 h, 3 days, luciferase (Bright-Glo)
Method in brief: as §1

Row | SMILES | CC50 at 3 days [1] | EC50 [2] | EC50 [3]
1 | COC(=O)N[C@H](C(=O)N1CCC[C@H]1c1ncc(-c2ccc(-c3ccc(-c4cnc(C5C6CCC(C6)[C@@H]5C(=O)NNc5nccnc5Cl)[nH]4)cc3)cc2)[nH]1)[C@@H](C)OC (stereo partly drawn) [AA_250_A] | > 1 nM | 10 to 100 nM | 0.101 to 1 nM
2 | COC(=O)N[C@H](C(=O)N1CCC[C@H]1c1[nH]c(-c2ccc(-c3ccc(-c4cnc([C@@H]5CCCN5C(=O)[C@@H](NC(=O)OC)[C@@H](C)OC)[nH]4)cc3)cc2)c2c1CCCC2)C(C)C [AG_067] | > 1 nM | 10 to 100 nM | 0.001 to 0.1 nM
3 | COC(=O)N[C@H](C(=O)N1CCCC1c1cc(Cl)c(-c2ccc(-c3ccc(-c4cnc([C@@H]5CCCN5C(=O)[C@@H](NC(=O)OC)C(C)C)[nH]4)cc3)cc2)[nH]1)C(C)C (stereo partly drawn) [AG_087] | > 1 nM | 0.101 to 1 nM | 0.001 to 0.1 nM
4 | COC(=O)N[C@H](C(=O)N1CC2(CCCC2)C[C@H]1c1ncc(-c2ccc(-c3ccc(-c4[nH]c([C@@H]5CCCN5C(=O)[C@@H](NC(=O)OC)[C@@H](C)OC)c5c4COC5)cc3)cc2)[nH]1)[C@@H](C)OC [AG_111] | > 1 nM | 0.101 to 1 nM | 0.001 to 0.1 nM
5 | COC(=O)N[C@H](C(=O)N1CCC[C@H]1c1ncc(-c2ccc(-c3ccc(-c4cnc(C5C6CCC(C6)[C@@H]5c5nc(-c6cccnc6)c[nH]5)[nH]4)cc3)cc2)[nH]1)C(C)C (stereo partly drawn) [AA_242] | > 1 nM | 10 to 100 nM | 0.101 to 1 nM
6 | COC(=O)N[C@H](C(=O)N1CCC[C@H]1c1ncc(-c2ccc(-c3ccc(-c4cnc(C5C6CCC(C6)[C@@H]5C(=O)NCc5cccnc5C(C)C)[nH]4)cc3)cc2)[nH]1)[C@@H](C)OC (stereo partly drawn) [AA_245_B] | > 1 nM | 10 to 100 nM | 0.101 to 1 nM
7 | COC(=O)N[C@H](C(=O)N1CCC[C@H]1c1ncc(-c2ccc(-c3ccc(-c4cnc(C5C6CCC(C6)[C@H]5C(=O)NCc5cccnc5F)[nH]4)cc3)cc2)[nH]1)[C@@H](C)OC (stereo partly drawn) [AA_252_B] | > 1 nM | 1 to 10 nM | 0.001 to 0.1 nM
8 | COC(=O)N[C@H](C(=O)N1CCC[C@H]1c1[nH]c(-c2ccc(-c3ccc(-c4cnc([C@@H]5CCCN5C(=O)[C@@H](NC(=O)OC)[C@@H](C)OC)[nH]4)cc3)cc2)c2c1COC2)C(C)C [AG_077] | > 5 nM | 0.001 to 0.1 nM | 0.001 to 0.1 nM
9 | COC(=O)N[C@H](C(=O)N1CCC[C@H]1c1ncc(-c2ccc(-c3ccc(-c4cnc(C5C6CCC(C6)[C@@H]5C(=O)Nc5ccccc5)[nH]4)cc3)cc2)[nH]1)[C@@H](C)OC (stereo partly drawn) [AA_246_A] | > 1 nM | 10 to 100 nM | 0.001 to 0.1 nM
10 | COC(=O)N[C@H](C(=O)N1C[C@@H](OC)C[C@H]1c1ncc(-c2ccc(-c3ccc(-c4cnc([C@H]5C6CCC(C6)[C@@H]5C(=O)NCc5cccnc5)[nH]4)cc3)cc2)[nH]1)[C@@H](C)OC (stereo partly drawn) [AA_231_B] | > 1 nM | 1 to 10 nM | 0.001 to 0.1 nM
11 | COC(=O)N[C@H](C(=O)N1CCC[C@H]1c1ncc(-c2ccc(-c3ccc(-c4cnc(C5C6CCC(C6)[C@@H]5C(=O)NCc5cncc(C(C)C)c5)[nH]4)cc3)cc2)[nH]1)[C@@H](C)OC (stereo partly drawn) [AA_254_A] | > 1 nM | 10 to 100 nM | 0.101 to 1 nM
12 | COC(=O)N[C@H](C(=O)N1CCC[C@H]1c1ncc(-c2ccc(-c3ccc(-c4cnc(C5CCCC[C@H]5C(=O)NCc5cccnc5)[nH]4)cc3)cc2)[nH]1)C(C)C (stereo partly drawn) [AA_113] | > 10 nM | 1 to 10 nM | 0.101 to 1 nM
13 | COC(=O)N[C@H](C(=O)N1CCC[C@H]1c1ncc(-c2ccc(-c3ccc(-c4cnc(C5C6CCC(C6)[C@@H]5C(=O)NCc5cccnc5SC)[nH]4)cc3)cc2)[nH]1)[C@@H](C)OC (stereo partly drawn) [AA_259_A] | > 1 nM | 10 to 100 nM | 0.001 to 0.1 nM
14 | COC(=O)N[C@H](C(=O)N1CCC[C@H]1c1[nH]c(-c2ccc(-c3ccc(-c4cnc([C@@H]5CCCN5C(=O)[C@@H](NC(=O)OC)C(C)(C)C)[nH]4)cc3)cc2)c2c1CCC2)C(C)C [AG_093] | > 1 nM | 10 to 100 nM | 0.001 to 0.1 nM
15 | COC(=O)N[C@H](C(=O)N1CCC[C@H]1c1ncc(-c2ccc(-c3ccc(-c4cnc([C@@H]5C6CCC(C6)[C@H]5C(=O)NCc5cccs5)[nH]4)cc3)cc2)[nH]1)C(C)C (stereo partly drawn) [AA_196_B] | > 1 nM | 10 to 100 nM | 0.001 to 0.1 nM
16 | COC(=O)NC(C(=O)N1CCC[C@H]1c1[nH]c(-c2ccc(-c3ccc(-c4cnc([C@@H]5CCCN5C(=O)[C@@H](NC(=O)OC)[C@@H](C)OC)[nH]4)cc3)cc2)c2c1CCC2)[C@@H](C)OC (stereo partly drawn) [AG_068_A] | > 1 nM | 1 to 10 nM | 0.001 to 0.1 nM
17 | COC(=O)N[C@H](C(=O)N1CCC[C@H]1c1ncc(-c2ccc(-c3ccc(-c4cnc([C@@H]5[C@H]6CC[C@H](C6)[C@H]5C(=O)NN(C(=O)OC)C(C)C)[nH]4)cc3)cc2)[nH]1)C(C)C [AA_299_ENDOA2] | > 1 nM | 10 to 100 nM | 0.001 to 0.1 nM

Row | SMILES | CC50 at 3 days [1] | EC50 [2] | EC50 [3]
18 | COC(=O)N[C@H](C(=O)N1CCC[C@H]1c1ncc(-c2ccc(-c3ccc(-c4cnc(C5C6CCC(C6)[C@H]5C(=O)NCc5cccnc5C(F)(F)F)[nH]4)cc3)cc2)[nH]1)[C@@H](C)OC (stereo partly drawn) [AA_255_B] | > 1 nM | 10 to 100 nM | 0.001 to 0.1 nM
19 | COC(=O)N[C@H](C(=O)N1CCC[C@H]1c1ncc(-c2ccc(-c3ccc(-c4cnc([C@@H]5[C@H]6CC[C@H](C6)[C@H]5C(=O)N[C@H](CO)c5cccnc5)[nH]4)cc3)cc2)[nH]1)C(C)C [AA_243_ENDOA2_B] | > 1 nM | 0.101 to 1 nM | 0.001 to 0.1 nM
20 | COC(=O)N[C@H](C(=O)N1CCC[C@H]1c1ncc(-c2ccc(-c3ccc(-c4cnc([C@@H]5[C@H]6CC[C@H](C6)[C@H]5C(=O)NCc5cncnc5)[nH]4)cc3)cc2)[nH]1)C(C)C [AA_201_ENDOA2] | > 1 nM | 0.101 to 1 nM | 0.001 to 0.1 nM
21 | COC(=O)NC(C(=O)N1CCC[C@@H]1c1[nH]c(-c2ccc(-c3ccc(-c4cnc([C@@H]5CCCN5C(=O)[C@@H](NC(=O)OC)[C@@H](C)OC)[nH]4)cc3)cc2)c2c1CCC2)[C@@H](C)OC (stereo partly drawn) [AG_068_B] | > 1 nM | 10 to 100 nM | 0.101 to 1 nM
22 | COC(=O)N[C@H](C(=O)N1CCC[C@H]1c1ncc(-c2ccc(-c3ccc(-c4cnc([C@@H]5C6CCC(C6)[C@H]5C(=O)NCc5cccc(N)c5)[nH]4)cc3)cc2)[nH]1)C(C)C (stereo partly drawn) [AA_199_B] | > 1 nM | 10 to 100 nM | 0.001 to 0.1 nM
23 | COC(=O)NC(C(=O)N1CCC[C@H]1c1ncc(-c2ccc(-c3ccc(-c4cnc(C5CCCC[C@@H]5C(=O)N(NC(=O)OC)C(C)C)[nH]4)cc3)cc2)[nH]1)C1CCOC1 (stereo partly drawn) [AA_122] | > 100 nM | 10 to 100 nM | 0.101 to 1 nM
24 | COC(=O)N[C@H](C(=O)N1CCC[C@H]1c1ncc(-c2ccc(-c3ccc(-c4cnc(C5C6CCC(C6)[C@H]5C(=O)N[C@H](C)c5cccnc5)[nH]4)cc3)cc2)[nH]1)[C@@H](C)OC (stereo partly drawn) [AA_253_B] | > 1 nM | 10 to 100 nM | 0.101 to 1 nM
25 | COC(=O)N[C@H](C(=O)N1CCC[C@H]1c1ncc(-c2ccc(-c3ccc(-c4cnc(C5[C@H]6CC[C@H](C6)[C@H]5C(=O)NCc5cnccn5)[nH]4)cc3)cc2)[nH]1)C(C)C (stereo partly drawn) [AA_206_ENDOA2] | > 1 nM | 0.101 to 1 nM | 0.001 to 0.1 nM
26 | COC(=O)N[C@H](C(=O)N1CCC[C@H]1c1ncc(-c2ccc(-c3ccc(-c4cnc(C5C6CCC(C6)[C@@H]5C(=O)NCc5cnccn5)[nH]4)cc3)cc2)[nH]1)[C@@H](C)OC (stereo partly drawn) [AA_268_A] | > 1 nM | 0.101 to 1 nM | 0.001 to 0.1 nM
27 | COC(=O)N[C@H](C(=O)N1CCC[C@H]1c1ncc(-c2ccc(-c3ccc(-c4cnc(C5[C@H]6CC[C@H](C6)[C@H]5C(=O)N[C@@H](c5cccnc5)C(C)C)[nH]4)cc3)cc2)[nH]1)C(C)C (stereo partly drawn) [AA_233_ENDOA2_B] | > 1 nM | 10 to 100 nM | 0.001 to 0.1 nM
28 | COC(=O)N[C@H](C(=O)N1CCC[C@H]1c1ncc(-c2ccc(-c3ccc(-c4cnc(C5C6CCC(C6)[C@@H]5C(=O)NCc5ccc(OC)nc5)[nH]4)cc3)cc2)[nH]1)[C@@H](C)OC (stereo partly drawn) [AA_223_B] | > 1 nM | 10 to 100 nM | 0.101 to 1 nM
29 | COC(=O)N[C@H](C(=O)N1CC2(C[C@H]1c1ncc(-c3ccc(-c4ccc(-c5cnc(C6C7CCC(C7)[C@H]6C(=O)NCc6cccnc6)[nH]5)cc4)cc3)[nH]1)OCCO2)C(C)C (stereo partly drawn) [AA_192_B] | > 1 nM | 1 to 10 nM | 0.001 to 0.1 nM
30 | COC(=O)N[C@H](C(=O)N1CCC[C@H]1c1ncc(-c2ccc(-c3ccc(-c4cnc([C@H]5C6CCC(C6)[C@@H]5C(=O)NC(CO)c5ccccn5)[nH]4)cc3)cc2)[nH]1)C(C)C (stereo partly drawn) [AA_243_A] | > 1 nM | 10 to 100 nM | 0.001 to 0.1 nM
31 | COC(=O)N[C@H](C(=O)N1CCC[C@H]1c1ncc(-c2ccc(-c3ccc(-c4cnc(C5C6CCC(C6)[C@@H]5C(=O)N[C@H](c5cccnc5)C(C)C)[nH]4)cc3)cc2)[nH]1)[C@@H](C)OC (stereo partly drawn) [AA_267_A] | > 1 nM | 0.101 to 1 nM | 0.001 to 0.1 nM
32 | COC(=O)N[C@H](C(=O)N1CCC[C@H]1c1ncc(-c2ccc(-c3ccc(-c4cnc([C@H]5C6CCC(C6)[C@@H]5C(=O)NCc5cccnc5C)[nH]4)cc3)cc2)[nH]1)C(C)C (stereo partly drawn) [AA_217] | > 1 nM | 10 to 100 nM | 1 to 10 nM
33 | COC(=O)N[C@H](C(=O)N1CCC[C@H]1c1ncc(-c2ccc(-c3ccc(-c4cnc([C@@H]5[C@H]6CC[C@H](C6)[C@H]5C(=O)NN(C(C)=O)C(C)C)[nH]4)cc3)cc2)[nH]1)C(C)C [AA_300_ENDOA2] | > 1 nM | 10 to 100 nM | 0.101 to 1 nM
